# Results from US11785950B2, “Use of dried chicory root to protect poultry and livestock against ectoparasites or as insect repellant” (Cosucra Groupe Warcoing S.A., priority 2017, dated 2023).
# What was measured:
# [1] = test system: scabies (dominantly caused by the mite Chorioptes bovis); assay: Comparative trial vs Amitraz: clinical index of scabies lesions; type: in vivo; set-up: key to clinical index, active lesions (4): % area with type 4 lesions = squares type 4/350*100; conditions: for clinical index, active lesions (4): week not given
# Excerpt: The whole trial lasted for 15 weeks and was subdivided in […]: a pre-treatment period of 9 weeks, a treatment period of 3 weeks, and a 3 week post-treatment period.
# The trial started with pre-treatment period of 9 weeks during which the animals were housed in a straw-bedded free stall and received no preventive treatment against scabies and lice. At the end of the pre-treatment period, the degree of scabies lesions (clinical index) and counts of mites and lice in skin-scraping samples were evaluated.
# (§1) Twenty Belgian Blue cattle (6 heifers and 14 cows) were used in this trial. Cattle with mild or severe visual signs of scabies infection were selected, tied, shaved, scored for scabies lesions (clinical index) and skin scraping samples were taken for counts of mites and lice. Next, the animals were divided into 2 groups, a control group and a treatment group, based on the results of the clinical index and mite—lice counts at the end of the pre-treatment phase. At the start of the treatment period, animals were housed in a tie-stable, shaved and tied to prevent physical contact with other animals.
# (§2) Control group: The animals in the positive control group were treated according to the standard ILVO (Flecmish Institute for Agriculture and Fishery) scabies prevention protocol which consisted of treatment with Amitraz (Tactic) and removal of the crusts, followed by a second treatment with interval of 10 days between both treatments. After the second treatment crusts were not removed.
# Treatment group: The animals in the treatment group were not treated with Amitraz (Tactic), but were fed the indicative daily dose of 200 g of dried chicory root composition per animal per day. Said amount corresponds to roughly 1 to 2% of dried chicory root on the total feed. Dried chicory root composition was provided mixed through the daily dose of soybean meal and concentrate. The nutritional treatment with dried chicory root composition lasted for 3 consecutive weeks during which the animals receive their daily dose of dried chicory root composition. […]
# In the last week of the pre-treatment period (week 0) and every following week till the end of the post-treatment period, the clinical index was determined as a measure for scabies lesions. Per animal, the number, size and type of scabies lesions was determined using a scoring form.
# A distinction was made between dried, healing lesions (type 3) and wet, active lesions (type 4). The clinical index was calculated based on the total number of lesions using the formula: Area with lesions=total squares/350*100.
# In addition, an alternative clinical index was calculated based on the number of active lesions: Area with lesions type 4=squares type 4/350*100. […]
# [2] = test system: mites (Chorioptes bovis); assay: Comparative trial vs Amitraz: mite count in skin scraping samples; type: in vivo; conditions: week 4; 10 animals per group
# Excerpt: as §1, §2
# Treatment group: The animals in the treatment group were not treated with Amitraz (Tactic), but were fed the indicative daily dose of 200 g of dried chicory root composition per animal per day. […]
# Using microscopy, the numbers of mites and lice in each sample were counted and the types of mites and lice were identified by an expert at the Laboratory of Parasitology, Ghent University, Belgium. […]
compound,measurement,setting,value
"Cc1ccc(/N=C/N(C)/C=N/c2ccc(C)cc2C)c(C)c1 [Tactic, Amitraz]","clinical index, active lesions (4)",[1]; 3rd week pair of columns,0.0
same,"clinical index, active lesions (4)",[1]; 4th week pair of columns,0.0
same,"clinical index, active lesions (4)",[1]; 5th week pair of columns,0.0
same,"clinical index of Tactic group higher than that of dried chicory root group, 95% confidence maximum",[1]; equivalence test,≤ 15%
same,WBT samples positive for Chorioptes bovis,[2],3 samples
same,hock samples positive for Chorioptes bovis,[2],one
